Assay results from paper PMC3986359, “New Cholinesterase Inhibitory Constituents from Lonicera quinquelocularis” (PLoS ONE, 2014).
Where two headings read alike, the source gives them in different places.

What was measured:
[1] = molecular target: T1, Acetylcholinesterase (EC 3.1.1.7) (Homo sapiens, UniProt P22303); test: biochemical; assay type: biochemical; conditions: for AChE inhibition profile (in words): qualitative statement; for IC50: read-out: AChE ± SEM (IC50)
T1 construct: purchased Sigma, Pakistan
T1 sequence (P22303 32-614): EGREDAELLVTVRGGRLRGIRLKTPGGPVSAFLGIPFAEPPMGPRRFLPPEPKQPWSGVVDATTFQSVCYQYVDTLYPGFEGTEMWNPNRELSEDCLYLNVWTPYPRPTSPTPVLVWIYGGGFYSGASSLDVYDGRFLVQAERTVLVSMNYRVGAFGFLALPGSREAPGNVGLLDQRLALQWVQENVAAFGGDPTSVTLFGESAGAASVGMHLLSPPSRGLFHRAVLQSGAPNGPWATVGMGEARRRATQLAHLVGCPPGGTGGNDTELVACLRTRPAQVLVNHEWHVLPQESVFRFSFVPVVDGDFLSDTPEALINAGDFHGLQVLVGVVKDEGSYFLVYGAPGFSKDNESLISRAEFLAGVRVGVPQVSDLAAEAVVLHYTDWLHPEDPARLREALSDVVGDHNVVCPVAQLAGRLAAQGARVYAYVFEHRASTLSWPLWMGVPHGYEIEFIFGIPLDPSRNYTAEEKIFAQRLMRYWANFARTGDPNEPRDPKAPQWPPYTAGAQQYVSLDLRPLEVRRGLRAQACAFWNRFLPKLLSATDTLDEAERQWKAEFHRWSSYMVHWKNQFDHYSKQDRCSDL
Method: (§1) All other chemicals were of analytical grade and were used as such without further purification. Acetylcholinesterase (AChE) and butyrylcholinesterase (BChE) inhibiting activities were measured according to a modified spectrophotometric method used by Ellman et al.. Protocol and assay conditions were the same as described by Rocha et al..
(§2) The Acetylthiocholine iodide and butyrylthiocholine chloride were used as substrates for investigation of acetylcholinesterase and butyrylcholinesterase assays, respectively. The 5,5′-Dithiobis[2-nitrobenzoic-acid] (DTNB) was used for the measurement of cholinesterase activity. The 0.2 mM DTNB in 62 mM sodium phosphate buffer (pH 8.0, 880 µL), test compound solution (40 µL) and acetylcholinesterase or butyrylcholinesterase solution (40 µL) were mixed and incubated for 15 minutes (25°C). The reaction was then initiated by the addition of acetylthiocholine or butyrylthiocholine (40 µL), respectively. […] All the reactions were performed in triplicate using a BMS spectrophotometer (USA). […] The final concentration of DMSO in the reaction mixture was maintained at 6%.

[2] = molecular target: T2, butyrylcholinesterase (horse-serum E.C 3.1.1.8) (Equus caballus, UniProt P81908); test: biochemical; assay type: biochemical; conditions: for BChE inhibition profile (in words): qualitative statement
T2 construct: butyrylcholinesterase (horse-serum E.C 3.1.1.8); purchased Sigma, Pakistan; host or cells: horse serum
T2 sequence (P81908 whole entry): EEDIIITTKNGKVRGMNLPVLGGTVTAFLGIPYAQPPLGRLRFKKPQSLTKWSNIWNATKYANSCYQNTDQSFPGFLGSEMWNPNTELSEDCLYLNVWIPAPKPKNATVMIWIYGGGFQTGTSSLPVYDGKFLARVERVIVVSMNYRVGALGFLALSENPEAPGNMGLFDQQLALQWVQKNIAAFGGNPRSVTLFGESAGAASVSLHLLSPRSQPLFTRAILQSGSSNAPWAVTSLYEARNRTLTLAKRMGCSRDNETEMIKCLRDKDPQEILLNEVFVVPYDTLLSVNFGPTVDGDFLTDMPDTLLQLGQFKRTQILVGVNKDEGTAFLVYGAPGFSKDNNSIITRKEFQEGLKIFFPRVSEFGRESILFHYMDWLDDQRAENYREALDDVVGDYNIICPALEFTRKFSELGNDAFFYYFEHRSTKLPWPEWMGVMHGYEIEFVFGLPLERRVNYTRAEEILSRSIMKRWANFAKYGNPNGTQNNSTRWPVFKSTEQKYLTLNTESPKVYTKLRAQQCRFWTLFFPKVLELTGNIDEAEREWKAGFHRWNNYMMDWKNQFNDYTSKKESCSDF
Method: as §1, §2

[3] = acetylthiocholine iodide substrate, DTNB, pH 8.0, 25°C, 412 nm, value ± SEM
[4] = butyrylthiocholine chloride substrate, DTNB, pH 8.0, 25°C, 412 nm, value ± SEM, read-out: BChE ± SEM (IC50)

**Q.** What does the source list for `CCCCC(CC)COC(=O)c1ccccc1C(=O)OCC(CC)CCCC` (stereo not shown) [Compound 1, bis (2-ethylhexyl phthalate]?
**A.** AChE ± SEM (IC50) [1, 3]: Nil; AChE inhibition profile (in words) [1]: inactive; BChE ± SEM (IC50) ([2]; butyrylthiocholine chloride substrate, DTNB, pH 8.0, 25°C, 412 nm, value ± SEM): Nil; BChE inhibition profile (in words) [2]: inactive

**Q.** What does the source list for `CCCCCCCCOC(=O)c1ccccc1C(=O)OCCCCCCCC` [Compound 2, dioctyl phthalate]?
**A.** IC50 [1, 3]: 8.74 ± 0.07 µM; AChE inhibition profile (in words) [1]: weak inhibition profile; IC50 [2]: 20.12 ± 0.079 µM; BChE inhibition profile (in words) [2]: weak inhibition profile

**Q.** What does the source list for `CCC(CCC(C)CCOC(C)=O)COC(=O)c1ccccc1C(=O)OCC(CC)CCC(C)CCOC(C)=O` (stereo not shown) [Compound 3, Bis (7-acetoxy-2-ethyl-5-methylheptyl) phthalate]?
**A.** IC50 [1, 3]: 1.65 ± 0.03 µM; IC50 [2, 4]: 5.98 ± 0.079 µM

**Q.** Which results are given for `CCOc1c(CC=C(C)C)cc(C(=O)OCC(C)(C)C)cc1CC=C(C)C` [Compound 4, Neopentyl-4-ethoxy-3,5-bis [3-methyl-2-butenyl] benzoate]?
**A.** IC50 [1, 3]: 5.27 ± 0.04 µM; AChE inhibition profile (in words) [1]: weak inhibition profile; IC50 [2, 4]: 14.76 ± 0.087 µM; BChE inhibition profile (in words) [2]: weak inhibition profile

**Q.** Which IC50 [1, 3] does the source give for `CC(C)=CCc1cc(C(=O)OCC(C)(C)C)cc(CC=C(C)C)c1O` [Compound 5, Neopentyl-4-hydroxy-3,5-bis [3-methyl-2-butenyl] benzoate] here?
**A.** 3.43 ± 0.02 µM

**Q.** What about the IC50 [2, 4] of the same compound?
**A.** 9.84 ± 0.037 µM
